pKi: −log10 of the molar value.
Molecular target: human PDE10A2 (Homo sapiens (Human), UniProt Q9Y233)
Test: PDE10 fluorescence polarization (IMAP FP) inhibition assay
Type: biochemical
Details: human PDE10A2 from transfected AD293 cells; FAM-labeled cAMP 50 nM; apparent inhibition constant; read-out: PDE10A Ki
How it was run: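 Cytoplasmic lysate of AD293 cells transiently expressing human PDE10A2 (enzyme level giving 20% conversion) incubated with 50 nM FAM-cAMP in pH 7.2 Tris/MgCl2 buffer, 30 min at room temperature. IMAP binding solution added, FP read after ≥1 h; 10-point 3-fold compound titrations fitted to a four-parameter equation.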

Chain of human PDE10A2 (Q9Y233 267-1055): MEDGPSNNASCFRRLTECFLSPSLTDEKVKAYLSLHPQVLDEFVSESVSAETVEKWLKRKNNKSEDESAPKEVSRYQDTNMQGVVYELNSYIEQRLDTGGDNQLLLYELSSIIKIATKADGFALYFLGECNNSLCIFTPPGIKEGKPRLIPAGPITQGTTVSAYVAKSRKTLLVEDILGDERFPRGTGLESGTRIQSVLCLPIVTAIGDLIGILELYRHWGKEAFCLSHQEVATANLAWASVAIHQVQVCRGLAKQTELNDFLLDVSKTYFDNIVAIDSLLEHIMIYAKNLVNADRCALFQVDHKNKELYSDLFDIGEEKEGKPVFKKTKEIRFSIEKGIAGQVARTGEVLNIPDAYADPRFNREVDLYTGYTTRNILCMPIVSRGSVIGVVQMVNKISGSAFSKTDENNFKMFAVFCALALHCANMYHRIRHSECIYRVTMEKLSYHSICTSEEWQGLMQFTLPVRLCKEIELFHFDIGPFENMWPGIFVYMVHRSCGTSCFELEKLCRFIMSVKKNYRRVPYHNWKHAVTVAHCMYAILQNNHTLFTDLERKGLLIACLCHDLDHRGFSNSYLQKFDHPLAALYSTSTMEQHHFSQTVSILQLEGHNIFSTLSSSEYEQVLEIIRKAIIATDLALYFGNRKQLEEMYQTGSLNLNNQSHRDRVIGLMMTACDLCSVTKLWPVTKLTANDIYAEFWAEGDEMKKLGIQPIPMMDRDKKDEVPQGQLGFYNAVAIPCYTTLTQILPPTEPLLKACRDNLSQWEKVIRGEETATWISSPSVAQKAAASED

**Q.** With `Cc1ccc([C@H]2C[C@@H]2COc2nc(C)ncc2-c2cnc(C(C)(C)O)cc2C)nc1` [Example 45, 2-(4-Methyl-5-(2-methyl-4-(((1S,2S)-2-(5-methylpyridin-2-yl)cyclopropyl)methoxy)pyrimidin-5-yl)pyridin-2-yl)propan-2-ol] as the compound, how does the pKi read?
**A.** 10.70

**Q.** With `Cc1ncc(-c2ccc(C(C)(C)O)nc2C)c(OC[C@H]2C[C@@H]2c2ccccn2)n1` [Example 119, 2-(6-methyl-5-(2-methyl-4-(((1S,2S)-2-(pyridin-2-yl)cyclopropyl)methoxy)pyrimidin-5-yl)pyridin-2-yl)propan-2-ol] as the compound, how does the pKi read?
**A.** 8.67

**Q.** With `COc1ncccc1-c1cnc(C)nc1OC[C@H]1C[C@@H]1c1ccc(C)cn1` [Example 16, 5-(2-methoxypyridin-3-yl)-2-methyl-4-(((1S,2S)-2-(5-methylpyridin-2-yl)cyclopropyl)methoxy)pyrimidine] as the compound, how does the pKi read?
**A.** 9.13

**Q.** With `COc1ccc([C@H]2C[C@@H]2COc2nc(C)ncc2-c2cnc(C(=O)O)cn2)nc1` [Example 96, 5-(4-(((1S,2S)-2-(5-methoxypyridin-2-yl)cyclopropyl)methoxy)-2-methylpyrimidin-5-yl)pyrazine-2-carboxylic acid] as the compound, how does the pKi read?
**A.** 8.90

**Q.** With `Cc1ncc(C2CCC(=O)CC2)c(OC[C@H]2C[C@@H]2c2ccc3ccccc3n2)n1` [Example 191, 4-(2-methyl-4-(((1S,2S)-2-(quinolin-2-yl)cyclopropyl)methoxy)pyrimidin-5-yl)cyclohexanone] as the compound, how does the pKi read?
**A.** 10.22

**Q.** With `CCOC(=O)[C@H]1CC[C@@H](c2cnc(C)nc2OC[C@H]2C[C@@H]2c2ccc(OC)cn2)CC1` [Example 216, cis-Ethyl4-(4-(((1S,2S)-2-(5-methoxypyridin-2-yl)cyclopropyl)methoxy)-2-methylpyrimidin-5-yl)cyclohexanecarboxylate] as the compound, how does the pKi read?
**A.** 8.10

**Q.** `COc1ccc([C@H]2C[C@@H]2COc2nc(C)ncc2-c2cnnn2C(F)F)nc1` [Example 246, 5-(3-(difluoromethyl)-3H-1,2,3-triazol-4-yl)-4-(((1S,2S)-2-(5-methoxypyridin-2-yl)cyclopropyl)methoxy)-2-methylpyrimidine] was tested. Which pKi did it give?
**A.** 8.18

**Q.** With `COc1ccc([C@H]2C[C@@H]2COc2nc(C)ncc2-c2cnco2)nc1` [Example 255, 5-(4-(((1S,2S)-2-(5-methoxypyridin-2-yl)cyclopropyl)methoxy)-2-methylpyrimidin-5-yl)oxazole] as the compound, how does the pKi read?
**A.** 8.11

**Q.** With `Cc1ncc(-c2ccc(C(C)(C)O)nc2)c(OC[C@H]2C[C@@H]2c2ccc3ccccc3n2)n1` [Example 157, 2-(5-(2-methyl-4-(((1S,2S)-2-(quinolin-2-yl)cyclopropyl)methoxy)pyrimidin-5-yl)pyridin-2-yl)propan-2-ol] as the compound, how does the pKi read?
**A.** 10.70

**Q.** How did the pKi turn out when `COc1ccc([C@H]2C[C@@H]2COc2nc(C)ncc2-c2ccc(-c3nc(CO)no3)cc2)nc1` [Example 95, (5-(4-(4-(((1S,2S)-2-(5-methoxypyridin-2-yl)cyclopropyl)methoxy)-2-methylpyrimidin-5-yl)phenyl)-1,2,4-oxadiazol-3-yl)methanol] was run?
**A.** 9.03

**Q.** `Cc1ccc([C@H]2C[C@@H]2COc2nc(C)ncc2-c2cccoc2=O)nc1` [Example 49, 3-(2-methyl-4-(((1S,2S)-2-(5-methylpyridin-2-yl)cyclopropyl)methoxy)pyrimidin-5-yl)-2H-pyran-2-one] was tested. Which pKi did it give?
**A.** 7.65

**Q.** `CCOc1cc(-c2cnc(C)nc2OC[C@H]2C[C@@H]2c2ccc(OC)cn2)ccn1` [Example 75, 5-(2-ethoxypyridin-4-yl)-4-(((1S,2S)-2-(5-methoxypyridin-2-yl)cyclopropyl)methoxy)-2-methylpyrimidine] was tested. Which pKi did it give?
**A.** 9.85

**Q.** With `CCn1nnc(-c2cnc(C)nc2OC[C@H]2C[C@@H]2c2ccc(OC)cn2)n1` [Example 236, 5-(2-ethyl-2H-tetrazol-5-yl)-4-(((1S,2S)-2-(5-methoxypyridin-2-yl)cyclopropyl)methoxy)-2-methylpyrimidine] as the compound, how does the pKi read?
**A.** 7.71

**Q.** How did the pKi turn out when `CCOc1cccc(-c2cnc(C)nc2OC[C@H]2C[C@@H]2c2ccc3ccccc3n2)c1` (single isomer, unassigned) [Example 41, 2,2,2-trifluoroacetate] was run?
**A.** 8.29

**Q.** With `Cc1ccc([C@H]2C[C@@H]2COc2nc(C)ncc2-c2ccc(C(C)(C)O)nc2C)nc1` [Example 138, 2-(6-Methyl-5-(2-methyl-4-(((1S,2S)-2-(5-methylpyridin-2-yl)cyclopropyl)methoxy)pyrimidin-5-yl)pyridin-2-yl)propan-2-ol] as the compound, how does the pKi read?
**A.** 9.64

**Q.** With `Cc1ncc(-c2ccc3ncc(C)n3c2)c(OC[C@H]2C[C@@H]2c2ccc3ccccc3n2)n1` [Example 129, 2-((1S,2S)-2-((2-methyl-5-(3-methylimidazo[1,2-a]pyridin-6-yl)pyrimidin-4-yloxy)methyl)cyclopropyl)quinoline] as the compound, how does the pKi read?
**A.** 10.70

**Q.** With `COc1ccc([C@H]2C[C@@H]2COc2nc(C)ncc2-c2ccc(OC(CO)CO)nc2)nc1` [Example 71, 2-(5-(4-(((1S,2S)-2-(5-methoxypyridin-2-yl)cyclopropyl)methoxy)-2-methylpyrimidin-5-yl)pyridin-2-yloxy)propane-1,3-diol] as the compound, how does the pKi read?
**A.** 8.32

**Q.** `Cc1ccc([C@H]2C[C@@H]2COc2nc(C)ncc2-c2cc(C)ccc2C)nc1` [Example 13, 5-(2,5-dimethylphenyl)-2-methyl-4-(((1S,2S)-2-(5-methylpyridin-2-yl)cyclopropyl)methoxy)pyrimidine] was tested. Which pKi did it give?
**A.** 9.15

**Q.** `Cc1ccc([C@H]2C[C@@H]2COc2nc(C)ncc2[C@H]2CC[C@](C)(O)CC2)nc1` [Example 213, (trans)1-Methyl-4-(2-methyl-4-(((1S,2S)-2-(5-methylpyridin-2-yl)cyclopropyl)methoxy)pyrimidin-5-yl)cyclohexanol] was tested. Which pKi did it give?
**A.** 8.16

**Q.** How did the pKi turn out when `Cc1ncc(-c2cn(C)nc2CO)c(OC[C@H]2C[C@@H]2c2ccccn2)n1` [Example 116, (1-methyl-4-(2-methyl-4-(((1S,2S)-2-(pyridin-2-yl)cyclopropyl)methoxy)pyrimidin-5-yl)-1H-pyrazol-3-yl)methanol] was run?
**A.** 8.05

**Q.** How did the pKi turn out when `CCn1cc(-c2cnc(C)nc2OC[C@H]2C[C@@H]2c2ccc(OC)cn2)nn1` [Example 247, 5-(1-ethyl-1H-1,2,3-triazol-4-yl)-4-(((1S,2S)-2-(5-methoxypyridin-2-yl)cyclopropyl)methoxy)-2-methylpyrimidine] was run?
**A.** 8.61

**Q.** `Cc1ncc(-c2cccn3ccnc23)c(OC[C@H]2C[C@@H]2c2ccc3ccccc3n2)n1` [Example 134, 2-((1S,2S)-2-((5-(imidazo[1,2-a]pyridin-8-yl)-2-methylpyrimidin-4-yloxy)methyl)cyclopropyl)quinoline] was tested. Which pKi did it give?
**A.** 8.39

**Q.** With `COc1ccc([C@H]2C[C@@H]2COc2nc(C)ncc2-c2ccc(CO)nn2)nc1` [Example 101, (6-(4-(((1S,2S)-2-(5-methoxypyridin-2-yl)cyclopropyl)methoxy)-2-methylpyrimidin-5-yl)pyridazin-3-yl)methanol] as the compound, how does the pKi read?
**A.** 7.92

**Q.** With `Cc1ccc([C@H]2C[C@@H]2COc2nc(C)ncc2-c2c(C)cccc2C)nc1` [Example 11, 5-(2,6-dimethylphenyl)-2-methyl-4-(((1S,2S)-2-(5-methylpyridin-2-yl)cyclopropyl)methoxy)pyrimidine] as the compound, how does the pKi read?
**A.** 8.35

**Q.** `Cc1ccc([C@H]2C[C@@H]2COc2nc(C)ncc2-c2ccc(C(O)C(C)C)nc2)nc1` (stereo partly drawn) [Example 140, 2-methyl-1-(5-(2-methyl-4-(((1S,2S)-2-(5-methylpyridin-2-yl)cyclopropyl)methoxy)pyrimidin-5-yl)pyridin-2-yl)propan-1-ol] was tested. Which pKi did it give?
**A.** 8.79

**Q.** With `Cc1ccc([C@H]2C[C@@H]2COc2nc(C)ncc2-c2ccc(OC(C)C)nc2C)nc1` [Example 61, 5-(6-isopropoxy-2-methylpyridin-3-yl)-2-methyl-4-(((1S,2S)-2-(5-methylpyridin-2-yl)cyclopropyl)methoxy)pyrimidine] as the compound, how does the pKi read?
**A.** 8.82

**Q.** How did the pKi turn out when `COc1ccc([C@H]2C[C@@H]2COc2nc(C)ncc2-c2ccc([S+](C)[O-])nc2)nc1` (single isomer, unassigned) [Example 65] was run?
**A.** 8.58

**Q.** How did the pKi turn out when `COc1ccc([C@H]2C[C@@H]2COc2nc(C)ncc2-c2ncno2)nc1` [Example 254, 5-(4-(((1S,2S)-2-(5-methoxypyridin-2-yl)cyclopropyl)methoxy)-2-methylpyrimidin-5-yl)-1,2,4-oxadiazole] was run?
**A.** 7.64

**Q.** With `COc1cc(-c2cnc(C)nc2OC[C@H]2C[C@@H]2c2ccc3ccccc3n2)cc2nccn12` [Example 131, 2-((1S,2S)-2-((5-(5-methoxyimidazo[1,2-a]pyridin-7-yl)-2-methylpyrimidin-4-yloxy)methyl)cyclopropyl)quinoline] as the compound, how does the pKi read?
**A.** 10.40

**Q.** With `COc1ccc([C@H]2C[C@@H]2COc2nc(C)ncc2-c2ccc(-c3nc(C)no3)cc2)nc1` [Example 253, 5-(4-(4-(((1S,2S)-2-(5-methoxypyridin-2-yl)cyclopropyl)methoxy)-2-methylpyrimidin-5-yl)phenyl)-3-methyl-1,2,4-oxadiazole] as the compound, how does the pKi read?
**A.** 8.52

**Q.** With `COc1ccc([C@H]2C[C@@H]2COc2nc(C)ncc2-c2cc(C(F)(F)F)cnc2Cl)nc1` [Example 87, 5-(2-chloro-5-(trifluoromethyl)pyridin-3-yl)-4-(((1S,2S)-2-(5-methoxypyridin-2-yl)cyclopropyl)methoxy)-2-methylpyrimidine] as the compound, how does the pKi read?
**A.** 9.36

**Q.** `COc1ccc([C@H]2C[C@@H]2COc2nc(C)ncc2[C@H]2CC[C@@H](C(=O)O)CC2)nc1` [Example 217, cis-4-(4-(((1S,2S)-2-(5-Methoxypyridin-2-yl)cyclopropyl)methoxy)-2-methylpyrimidin-5-yl)cyclohexanecarboxylic acid] was tested. Which pKi did it give?
**A.** 8.28

**Q.** How did the pKi turn out when `COc1ccc([C@H]2C[C@@H]2COc2nc(C)ncc2-c2ccnc(F)c2)nc1` [Example 21, 5-(2-fluoropyridin-4-yl)-4-(((1S,2S)-2-(5-methoxypyridin-2-yl)cyclopropyl)methoxy)-2-methylpyrimidine] was run?
**A.** 9.48

**Q.** How did the pKi turn out when `Cc1ccc([C@H]2C[C@@H]2COc2nc(C)ncc2[C@]2(F)CC[C@@H](O)CC2)nc1` [Example 210, (trans)-4-Fluoro-4-(2-methyl-4-(((1S,2S)-2-(5-methylpyridin-2-yl)cyclopropyl)methoxy)pyrimidin-5-yl)cyclohexanol] was run?
**A.** 8.11
